# In publication PMC13198257, “An aerosolized dual-action autotaxin inhibitor-PPARγ agonist for the treatment of pulmonary fibrosis” (Cell Reports Medicine, 2026):
# System: lung gene expression
# Assay: RNA sequencing of lung tissue (BLM/EL244 vs BLM)
# Type: in vivo, mouse
# Conditions: lung tissue, BLM/EL244 vs BLM
# Protocol: RNA quality was assessed using an Agilent TapeStation 4150 with the High Sensitivity […] ScreenTape (Agilent), according to the manufacturer’s protocols. For library preparation, the QuantSeq 3’mRNA-Seq Library Prep Kit (Lexogen) was used according to manufacturer’s instructions. Briefly, 500 ng of RNA from each sample was used for first-strand synthesis, followed by RNA template removal, and second-strand synthesis initiated by random primers. In-line barcodes were introduced at this step, and this was followed by magnetic bead-based purification. The resulting libraries were amplified for 15 cycles and re-purified, with quantity and quality assessed on a Qubit 4 Fluorometer with the Invitrogen Qubit dsDNA HS Assay and an Agilent Tapestation 4150 with the High Sensitivity D1000 assay kit, respectively. The quantified libraries were pooled equimolarly; 50ng of total library mix was used for Adapter Conversion PCR Amplification using the Universal Library Conversion Kit (App-A), Version: V1.0 (MGI Tech Co., Ltd.), according to the manufacturer’s instructions.
# The quantity and quality of the purified adapter conversion PCR (AC-PCR) product were evaluated on a Qubit 4 Fluorometer with the Invitrogen Qubit dsDNA HS Assay and on an Agilent Tapestation 4150 with the High Sensitivity D1000 assay kit, respectively. This was followed by DNA denaturation, Single-Strand Circularisation, Enzymatic Digestion, Enzymatic Digestion Product Cleanup and Quality Control steps on 1 pmol of AC-PCR product, according to the Universal Library Conversion Kit (App-A) User Manual (Version: A3).
# Finally, 60 fmol of ssCirDNA were used for DNB preparation and sequencing on a DNBSEQ-G400 platform at the BSRC Alexander Fleming Genomics Facility, using a G400 App-A FCS SE100 High-throughput Sequencing Set (MGI Tech Co., Ltd.), according to the manufacturer’s instructions.
# Alignment of the FASTQ files was performed against the mouse genome build mm10 using a custom Bash script.[143] Read counting on the 3′ UTRs and differential expression analysis were conducted using the metaseqR2 bioconductor package.[144] Genes corresponding to the following biotypes were excluded: polymorphic_pseudogene, processed_transcript, pseudogene, IG_V_pseudogene, misc_RNA, IG_C_gene, IG_J_gene, IG_D_gene, IG_LV_gene, TR_V_gene, TR_V_pseudogene, TEC, and processed_pseudogene. Gene counts were normalized with DESEQ[145] through metaseqR2. Genes with more than 10 counts in at least 50% of the samples were kept for further processing. For differential expression analysis, the PANDORA algorithm[146] was used to estimate a meta p-value integrating the results from the DESEQ, DESEQ2,[147] edgeR,[148] limma,[149] NBPSeq,[150] and NOISeq[151] algorithms. All additional parameters were set to default values.
# Pathway enrichment analysis was performed for the Gene Ontology Biological process (BP) and Molecular Function (MF) terms through GeneCodis 4.[152] The volcano plots, scatterplots, Venn diagrams, and dot plots were generated using the ggplot2 Bioconductor package.
compound,measurement,value
"O=C1NC(=O)C(Cc2ccc(OCCC3CCN(C(=O)OCc4cc(Cl)cc(Cl)c4)CC3)cc2)S1 (stereo not shown) [EL244, 3,5-dichlorobenzyl 4-(2-(4-((2,4-dioxothiazolidin-5-yl)methyl)phenoxy)ethyl)piperidine-1-carboxylate]",Prrx2 nFC,0.30
same,Prss23 log2 nFC,0.67
same,Prss23 nFC,1.60
same,Ptprb log2 nFC,0.67
same,Ptprb nFC,1.59
same,Rad51 log2 nFC,-1.90
same,Rad51 nFC,0.27
same,Rad54l log2 nFC,-1.87
same,Rad54l nFC,0.27
same,Rbm33 log2 nFC,0.58
same,Rbm33 nFC,1.50
same,Rcan1 log2 nFC,-0.84
same,Rcan1 nFC,0.56
same,Rcn3 log2 nFC,-0.66
same,Rcn3 nFC,0.63
same,Retnla log2 nFC,-2.32
same,Retnla nFC,0.20
same,Rgs16 log2 nFC,-2.59
same,Rgs16 nFC,0.17
same,Rnaset2a log2 nFC,-0.70
same,Rnaset2a nFC,0.62
same,Rps27l log2 nFC,-0.70
same,Rps27l nFC,0.62
same,Rrm1 log2 nFC,-0.81
same,Rrm1 nFC,0.57
same,Rrm2 log2 nFC,-2.56
same,Rrm2 nFC,0.17
same,S100a11 log2 nFC,-0.60
same,S100a11 nFC,0.66
same,Saa3 log2 nFC,-2.75
same,Saa3 nFC,0.15
same,Sash1 log2 nFC,0.59
same,Sash1 nFC,1.50
same,Scarb1 log2 nFC,-0.72
same,Scarb1 nFC,0.61
same,Scgb3a2 log2 nFC,0.65
same,Scgb3a2 nFC,1.56
same,Selenop log2 nFC,0.58
same,Selenop nFC,1.50
same,Sfrp1 log2 nFC,-1.73
same,Sfrp1 nFC,0.30
same,Sftpc log2 nFC,0.62
same,Sftpc nFC,1.54
same,Sgo2a log2 nFC,-1.68
same,Sgo2a nFC,0.31
same,Sh3pxd2b log2 nFC,-0.78
same,Sh3pxd2b nFC,0.58
same,Shcbp1 log2 nFC,-1.60
same,Shcbp1 nFC,0.33
same,Sirpa log2 nFC,-0.71
same,Sirpa nFC,0.61
same,Ska1 log2 nFC,-2.52
same,Ska1 nFC,0.17
same,Slc7a11 log2 nFC,-1.50
same,Slc7a11 nFC,0.35
same,Slc36a1 log2 nFC,-0.81
same,Slc36a1 nFC,0.57
same,Slc39a1 log2 nFC,-0.63
same,Slc39a1 nFC,0.65
same,Snrnp40 log2 nFC,-0.60
same,Snrnp40 nFC,0.66
same,Snrpd1 log2 nFC,-0.64
same,Snrpd1 nFC,0.64
same,Socs3 log2 nFC,-0.62
same,Socs3 nFC,0.65
same,Sox4 log2 nFC,-0.80
same,Sox4 nFC,0.57
same,Sox9 log2 nFC,-1.42
same,Sox9 nFC,0.37
same,Spag5 log2 nFC,-1.65
same,Spag5 nFC,0.32
same,Sparc log2 nFC,-0.74
same,Sparc nFC,0.60
same,Spc25 log2 nFC,-2.02
same,Spc25 nFC,0.25
same,Spp1 log2 nFC,-1.50
same,Spp1 nFC,0.35
same,Ssc5d log2 nFC,-1.71
same,Ssc5d nFC,0.31
same,Ssh2 log2 nFC,0.66
same,Ssh2 nFC,1.58
same,Sting1 log2 nFC,-0.77
same,Sting1 nFC,0.59
same,Stmn1 log2 nFC,-0.70
same,Stmn1 nFC,0.62
same,Stxbp6 log2 nFC,0.64
same,Stxbp6 nFC,1.56
same,Tacc2 log2 nFC,0.66
same,Tacc2 nFC,1.57
same,Taf10 log2 nFC,-0.59
same,Taf10 nFC,0.67
same,Tceal9 log2 nFC,-0.69
same,Tceal9 nFC,0.62
same,Tcf19 log2 nFC,-1.42
same,Tcf19 nFC,0.37
same,Tfdp1 log2 nFC,-0.74
same,Tfdp1 nFC,0.60
same,Tgfbi log2 nFC,-0.68
same,Tgfbi nFC,0.62
same,Tgif1 log2 nFC,-0.75
same,Tgif1 nFC,0.60
same,Thbs4 log2 nFC,-2.34
same,Thbs4 nFC,0.20
same,Thoc6 log2 nFC,-0.81
same,Thoc6 nFC,0.57
same,Timm44 log2 nFC,-0.72
same,Timm44 nFC,0.61
same,Timp1 log2 nFC,-2.30
same,Timp1 nFC,0.20
same,Tk1 log2 nFC,-2.01
same,Tk1 nFC,0.25
same,Tmem37 log2 nFC,-0.82
same,Tmem37 nFC,0.57
same,Tmem252 log2 nFC,-0.70
same,Tmem252 nFC,0.62
same,Tmsb10 log2 nFC,-0.58
same,Tmsb10 nFC,0.67
same,Tnc log2 nFC,-2.35
same,Tnc nFC,0.20
same,Tnfrsf1b log2 nFC,-0.70
same,Tnfrsf1b nFC,0.61
same,Tnip3 log2 nFC,-1.47
same,Tnip3 nFC,0.36
same,Tns1 log2 nFC,0.67
same,Tns1 nFC,1.59
same,Top2a log2 nFC,-1.97
same,Top2a nFC,0.25
same,Tpx2 log2 nFC,-2.92
same,Tpx2 nFC,0.13
same,Trem2 log2 nFC,-1.42
same,Trem2 nFC,0.37
same,Trip13 log2 nFC,-1.42
same,Trip13 nFC,0.37
same,Tspan7 log2 nFC,0.64
same,Tspan7 nFC,1.56
same,Tubb5 log2 nFC,-0.77
same,Tubb5 nFC,0.59
same,Tubb6 log2 nFC,-0.75
same,Tubb6 nFC,0.59
same,Txnip log2 nFC,0.65
same,Txnip nFC,1.56
same,Tyrobp log2 nFC,-0.69
same,Tyrobp nFC,0.62
same,Ube2c log2 nFC,-1.80
same,Ube2c nFC,0.29
same,Uhrf1 log2 nFC,-1.72
same,Uhrf1 nFC,0.30
same,Utrn log2 nFC,0.68
same,Utrn nFC,1.60
same,Vangl2 log2 nFC,-0.76
same,Vangl2 nFC,0.59
same,Xcl1 log2 nFC,-1.81
same,Xcl1 nFC,0.29
same,Zfp46 log2 nFC,-0.70
same,Zfp46 nFC,0.62
same,Zranb3 log2 nFC,-1.43
same,Zranb3 nFC,0.37
same,Zwilch log2 nFC,-1.54
same,Zwilch nFC,0.34
same,log2 nFC 1500009L16Rik,-1.23
same,log2 nFC 2200002D01Rik,-0.88
same,log2 nFC AA467197,-1.39
same,log2 nFC Adamts2,-1.00
same,log2 nFC Areg,-1.03
same,log2 nFC Arhgap11a,-1.13
same,log2 nFC Armcx4,-1.32
same,log2 nFC Asf1b,-1.14
same,log2 nFC Bcl2a1b,-1.15
same,log2 nFC Bcl2a1d,-1.29
same,log2 nFC Bub1b,-1.19
same,log2 nFC C1qtnf5,-0.87
same,log2 nFC C1qtnf6,-1.38
same,log2 nFC Ccdc8,-1.11
same,log2 nFC Ccl9,-1.37
same,log2 nFC Ccl17,-0.95
same,log2 nFC Cd68,-0.99
same,log2 nFC Cd72,-1.01
same,log2 nFC Cd248,-1.25
same,log2 nFC Cd300c2,-0.89
same,log2 nFC Cdca2,-1.33
same,log2 nFC Cenpa,-1.31
same,log2 nFC Cenpw,-1.33
same,log2 nFC Cercam,-1.37
same,log2 nFC Ch25h,-0.91
same,log2 nFC Cilp,-1.39
same,log2 nFC Clcn5,-0.92
same,log2 nFC Clec4a2,-1.26
same,log2 nFC Clec4n,-1.39
same,log2 nFC Clec5a,-1.14
same,log2 nFC Clec11a,-1.00
same,log2 nFC Clec12a,-0.91
same,log2 nFC Col1a2,-1.41
same,log2 nFC Col8a1,-1.19
same,log2 nFC Col12a1,-0.90
same,log2 nFC Col15a1,-1.10
same,log2 nFC Col16a1,-0.92
same,log2 nFC Cotl1,-0.88
same,log2 nFC Csf2rb2,-0.99
same,log2 nFC Cstb,-0.95
same,log2 nFC Ctsk,-0.98
same,log2 nFC Ctss,-0.92
same,log2 nFC Cx3cr1,-1.17
same,log2 nFC Cyp7b1,-1.41
same,log2 nFC Dbn1,-0.88
same,log2 nFC Dclk1,-0.86
same,log2 nFC Diaph3,-1.13
same,log2 nFC Dio2,-1.39
same,log2 nFC Dok2,-1.37
same,log2 nFC Dut,-0.89
same,log2 nFC Egr2,-0.89
same,log2 nFC Epha4,-0.89
same,log2 nFC F10,-1.11
same,log2 nFC Fam20c,-1.06
same,log2 nFC Fbn1,-1.03
same,log2 nFC Fcgr1,-1.30
same,log2 nFC Fcgr2b,-1.08
same,log2 nFC Fcrls,-1.35
same,log2 nFC Fen1,-1.00
same,log2 nFC Fgf13,-1.40
same,log2 nFC Fkbp10,-1.25
same,log2 nFC Fndc1,-1.11
same,log2 nFC Fscn1,-1.22
same,log2 nFC Fst,-1.05
same,log2 nFC Fstl1,-1.21
same,log2 nFC Gas2l3,-1.32
same,log2 nFC Gm13889,-0.85
same,log2 nFC Gm25380,-1.01
same,log2 nFC Gm42674,-1.18
same,log2 nFC Gm49339,-0.94
